Patent US20260242419A1, “A CYCLIC PEPTIDE FOR TRAPPING INTERLEUKIN-1 BETA” (Merck Sharp & Dohme LLC, priority 2023, published 2026)
Non-standard residues stand in square brackets, D forms with d. Residues, ends and D or L forms follow the SMILES beside them. Phe(4-(5-CO2H-2-pyrimidyl)) = N[C@@H](Cc1ccc(-c2ncc(C(=O)O)cn2)cc1)C(=O)O; Phe(4-(4-Ac-piperazinyl)) = CC(=O)N1CCN(c2ccc(C[C@H](N)C(=O)O)cc2)CC1; dPro(4R-(4-pyridylmethyl)) = O=C(O)[C@H]1C[C@@H](Cc2ccncc2)CN1; Trp(βS-Me,4-F) = C[C@@H](c1c[nH]c2cccc(F)c12)[C@H](N)C(=O)O; Bip(4'-COOH) = N[C@@H](Cc1ccc(-c2ccc(C(=O)O)cc2)cc1)C(=O)O; Ala(1-bicyclo(1.1.1)pentyl) = N[C@@H](CC12CC(C1)C2)C(=O)O; dPro(4R-Bzl(4-F)) = O=C(O)[C@H]1C[C@@H](Cc2ccc(F)cc2)CN1; Ala(pyrimidin-5-yl) = N[C@@H](Cc1cncnc1)C(=O)O; Phe(4-COOH) = N[C@@H](Cc1ccc(C(=O)O)cc1)C(=O)O; Pro(cis-4-F) = O=C(O)[C@@H]1C[C@H](F)CN1; Ala(4-THP) = N[C@@H](CC1CCOCC1)C(=O)O; cisHyp = O=C(O)[C@@H]1C[C@H](O)CN1; 4Pal = N[C@@H](Cc1ccncc1)C(=O)O; aThr = C[C@H](O)[C@H](N)C(=O)O; αMeD = C[C@](N)(CC(=O)O)C(=O)O; d(αMeS) = C[C@@](N)(CO)C(=O)O; Dab = NCC[C@H](N)C(=O)O; Aib = CC(C)(N)C(=O)O; Sar = CNCC(=O)O

Target: T1, IL-1β (Homo sapiens, UniProt P01584)
T1 construct: purchased BioLegend 579404
Experiment: IL-6 assay in MRC5 cells: inhibition of IL-1β induced IL-6 secretion (AlphaLISA)
Assay type: cell-based
Settings: inhibition of IL-1β induced IL-6 secretion in MRC5 cells; read-out: MRC5 IC50
Summary of the method: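 Compound was pre-incubated 1 h at ambient temperature with recombinant human IL-1β at 2λ EC80 before adding human lung fibroblast MRC5 cells (3000/well) in EMEM with 0.025% BSA. After overnight culture at 37 °C, 5% CO2, secreted IL-6 in conditioned medium was measured by AlphaLISA; IC50 from 4-parameter logistic fits.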

T1 sequence (P01584 117-269): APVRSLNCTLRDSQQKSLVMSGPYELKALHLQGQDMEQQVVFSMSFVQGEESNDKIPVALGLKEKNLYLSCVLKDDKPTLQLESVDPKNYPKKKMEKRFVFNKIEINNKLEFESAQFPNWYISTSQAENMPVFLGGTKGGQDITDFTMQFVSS

| Structure (SMILES) | IC50 |
| --- | --- |
| C[C@@H](c1c[nH]c2cccc(F)c12)[C@@H]1NC(=O)[C@@H]2C[C@H](O)CN2C(=O)CNC(=O)[C@H](Cc2ccc(C(=O)O)cc2)NC(=O)[C@H](Cc2ccncc2)NC(=O)[C@H](Cc2ccc(-c3ccc(C(=O)O)cc3)cc2)NC(=O)[C@H]2C[C@@H](Cc3ccncc3)CN2C(=O)CNC(=O)[C@H](CCN)NC(=O)[C@H](CCC(N)=O)NC(=O)[C@H](Cc2cncnc2)NC(=O)[C@@](C)(CO)NC(=O)[C@H](Cc2c[nH]c3ccccc23)NC(=O)[C@H](CO)NC(=O)C(C)(C)NC1=O [Example 195] (cyclo([Bip(4'-COOH)][4Pal][Phe(4-COOH)]G[cisHyp][Trp(βS-Me,4-F)][Aib]SW[d(αMeS)][Ala(pyrimidin-5-yl)]Q[Dab]G[dPro(4R-(4-pyridylmethyl))])) | 0.013 nM |
| CC(=O)N1CCN(c2ccc(C[C@@H]3NC(=O)[C@H]4C[C@@H](Cc5ccc(F)cc5)CN4C(=O)CNC(=O)[C@H](CCN)NC(=O)[C@H](CCC(N)=O)NC(=O)[C@H](Cc4cncnc4)NC(=O)C(C)(C)NC(=O)[C@H](Cc4c[nH]c5ccccc45)NC(=O)[C@H](CO)NC(=O)C(C)(C)NC(=O)[C@H]([C@@H](C)c4c[nH]c5cccc(F)c45)NC(=O)[C@@H]4C[C@H](O)CN4C(=O)CNC(=O)[C@H](Cc4ccc(C(=O)O)cc4)NC(=O)[C@H](Cc4ccncc4)NC3=O)cc2)CC1 [Example 196] (cyclo([Phe(4-(4-Ac-piperazinyl))][4Pal][Phe(4-COOH)]G[cisHyp][Trp(βS-Me,4-F)][Aib]SW[Aib][Ala(pyrimidin-5-yl)]Q[Dab]G[dPro(4R-Bzl(4-F))])) | 0.038 nM |
| C[C@@H](c1c[nH]c2cccc(F)c12)[C@@H]1NC(=O)[C@@H]2C[C@H](O)CN2C(=O)CNC(=O)[C@H](Cc2ccc(C(=O)O)cc2)NC(=O)[C@H](Cc2ccncc2)NC(=O)[C@H](Cc2ccc(-c3ncc(C(=O)O)cn3)cc2)NC(=O)[C@H]2C[C@@H](Cc3ccncc3)CN2C(=O)CNC(=O)[C@H](CCN)NC(=O)[C@H](CCC(N)=O)NC(=O)[C@H](Cc2cncnc2)NC(=O)C(C)(C)NC(=O)[C@H](Cc2c[nH]c3ccccc23)NC(=O)[C@H](CO)NC(=O)C(C)(C)NC1=O [Example 197] (cyclo([Phe(4-(5-CO2H-2-pyrimidyl))][4Pal][Phe(4-COOH)]G[cisHyp][Trp(βS-Me,4-F)][Aib]SW[Aib][Ala(pyrimidin-5-yl)]Q[Dab]G[dPro(4R-(4-pyridylmethyl))])) | 0.036 nM |
| C[C@@H](c1c[nH]c2cccc(F)c12)[C@@H]1NC(=O)[C@@H]2C[C@H](F)CN2C(=O)CNC(=O)[C@H](Cc2ccc(C(=O)O)cc2)NC(=O)[C@H](CC23CC(C2)C3)NC(=O)[C@H](Cc2ccc(-c3ncc(C(=O)O)cn3)cc2)NC(=O)[C@H]2C[C@@H](Cc3ccncc3)CN2C(=O)CNC(=O)[C@H](CCN)NC(=O)[C@H](CCC(N)=O)NC(=O)[C@H](Cc2cncnc2)NC(=O)C(C)(C)NC(=O)[C@H](Cc2c[nH]c3ccccc23)NC(=O)[C@H](CO)NC(=O)C(C)(C)NC1=O [Example 198] (cyclo([Phe(4-(5-CO2H-2-pyrimidyl))][Ala(1-bicyclo(1.1.1)pentyl)][Phe(4-COOH)]G[Pro(cis-4-F)][Trp(βS-Me,4-F)][Aib]SW[Aib][Ala(pyrimidin-5-yl)]Q[Dab]G[dPro(4R-(4-pyridylmethyl))])) | 0.024 nM |
| C[C@@H](c1c[nH]c2cccc(F)c12)[C@@H]1NC(=O)[C@@H]2C[C@H](O)CN2C(=O)CNC(=O)[C@H](Cc2ccc(C(=O)O)cc2)NC(=O)[C@H](Cc2ccncc2)NC(=O)[C@H](Cc2ccc(-c3ccc(C(=O)O)cc3)cc2)NC(=O)[C@H]2C[C@@H](Cc3ccncc3)CN2C(=O)CNC(=O)[C@H](CO)NC(=O)[C@H](CCC(N)=O)NC(=O)[C@H](CC2CCOCC2)NC(=O)[C@](C)(CC(=O)O)NC(=O)[C@H](Cc2c[nH]c3ccccc23)NC(=O)[C@H](CO)NC(=O)C(C)(C)NC1=O [Example 199] (cyclo([Bip(4'-COOH)][4Pal][Phe(4-COOH)]G[cisHyp][Trp(βS-Me,4-F)][Aib]SW[αMeD][Ala(4-THP)]QSG[dPro(4R-(4-pyridylmethyl))])) | 0.032 nM |
| C[C@@H](c1c[nH]c2cccc(F)c12)[C@@H]1NC(=O)[C@@H]2C[C@H](F)CN2C(=O)CNC(=O)[C@H](Cc2ccc(C(=O)O)cc2)NC(=O)[C@H](Cc2ccncc2)NC(=O)[C@H](Cc2ccc(-c3ccc(C(=O)O)cc3)cc2)NC(=O)[C@H]2C[C@@H](Cc3ccncc3)CN2C(=O)CNC(=O)[C@H](CCN)NC(=O)[C@H](CCC(N)=O)NC(=O)[C@H](CC2CCOCC2)NC(=O)[C@](C)(CC(=O)O)NC(=O)[C@H](Cc2c[nH]c3ccccc23)NC(=O)[C@H](CO)NC(=O)C(C)(C)NC1=O [Example 200] (cyclo([Bip(4'-COOH)][4Pal][Phe(4-COOH)]G[Pro(cis-4-F)][Trp(βS-Me,4-F)][Aib]SW[αMeD][Ala(4-THP)]Q[Dab]G[dPro(4R-(4-pyridylmethyl))])) | 0.014 nM |
| C[C@@H](c1c[nH]c2cccc(F)c12)[C@@H]1NC(=O)[C@@H]2C[C@H](O)CN2C(=O)CNC(=O)[C@H](Cc2ccc(C(=O)O)cc2)NC(=O)[C@H](Cc2ccncc2)NC(=O)[C@H](Cc2ccc(-c3ccc(C(=O)O)cc3)cc2)NC(=O)[C@H]2C[C@@H](Cc3ccncc3)CN2C(=O)CNC(=O)[C@H](CCN)NC(=O)[C@H](CCC(N)=O)NC(=O)[C@H](CC2CCOCC2)NC(=O)[C@](C)(CC(=O)O)NC(=O)[C@H](Cc2c[nH]c3ccccc23)NC(=O)[C@H](CO)NC(=O)C(C)(C)NC1=O [Example 201] (cyclo([Bip(4'-COOH)][4Pal][Phe(4-COOH)]G[cisHyp][Trp(βS-Me,4-F)][Aib]SW[αMeD][Ala(4-THP)]Q[Dab]G[dPro(4R-(4-pyridylmethyl))])) | 0.019 nM |
| C[C@H](O)[C@@H]1NC(=O)[C@](C)(CC(=O)O)NC(=O)[C@H](Cc2c[nH]c3ccccc23)NC(=O)[C@H](CO)NC(=O)C(C)(C)NC(=O)[C@H]([C@@H](C)c2c[nH]c3cccc(F)c23)NC(=O)[C@@H]2C[C@H](F)CN2C(=O)CNC(=O)[C@H](Cc2ccc(C(=O)O)cc2)NC(=O)[C@H](CC23CC(C2)C3)NC(=O)[C@H](Cc2ccc(-c3ccc(C(=O)O)cc3)cc2)NC(=O)[C@H]2C[C@@H](Cc3ccncc3)CN2C(=O)CNC(=O)[C@H](CCN)NC(=O)[C@H](CCC(N)=O)NC1=O [Example 202] (cyclo([Bip(4'-COOH)][Ala(1-bicyclo(1.1.1)pentyl)][Phe(4-COOH)]G[Pro(cis-4-F)][Trp(βS-Me,4-F)][Aib]SW[αMeD][aThr]Q[Dab]G[dPro(4R-(4-pyridylmethyl))])) | 0.013 nM |
| CC(C)[C@@H]1NC(=O)[C@](C)(CC(=O)O)NC(=O)[C@H](Cc2c[nH]c3ccccc23)NC(=O)[C@H](CO)NC(=O)C(C)(C)NC(=O)[C@H]([C@@H](C)c2c[nH]c3cccc(F)c23)NC(=O)[C@@H]2C[C@H](F)CN2C(=O)CNC(=O)[C@H](Cc2ccc(C(=O)O)cc2)NC(=O)[C@H](CC23CC(C2)C3)NC(=O)[C@H](Cc2ccc(-c3ccc(C(=O)O)cc3)cc2)NC(=O)[C@H]2C[C@@H](Cc3ccncc3)CN2C(=O)CNC(=O)[C@H](CCN)NC(=O)[C@H](CCC(N)=O)NC1=O [Example 203] (cyclo([Bip(4'-COOH)][Ala(1-bicyclo(1.1.1)pentyl)][Phe(4-COOH)]G[Pro(cis-4-F)][Trp(βS-Me,4-F)][Aib]SW[αMeD]VQ[Dab]G[dPro(4R-(4-pyridylmethyl))])) | 0.016 nM |
| C[C@@H](c1c[nH]c2cccc(F)c12)[C@@H]1NC(=O)[C@@H]2C[C@H](F)CN2C(=O)CNC(=O)[C@H](Cc2ccc(C(=O)O)cc2)NC(=O)[C@H](CC23CC(C2)C3)NC(=O)[C@H](Cc2ccc(-c3ccc(C(=O)O)cc3)cc2)NC(=O)[C@H]2C[C@@H](Cc3ccncc3)CN2C(=O)CNC(=O)[C@H](CCN)NC(=O)[C@H](CCC(N)=O)NC(=O)[C@H](CC2CCOCC2)NC(=O)[C@@](C)(CO)NC(=O)[C@H](Cc2c[nH]c3ccccc23)NC(=O)[C@H](CO)NC(=O)C(C)(C)NC1=O [Example 204] (cyclo([Bip(4'-COOH)][Ala(1-bicyclo(1.1.1)pentyl)][Phe(4-COOH)]G[Pro(cis-4-F)][Trp(βS-Me,4-F)][Aib]SW[d(αMeS)][Ala(4-THP)]Q[Dab]G[dPro(4R-(4-pyridylmethyl))])) | 0.017 nM |
| C[C@@H](c1c[nH]c2cccc(F)c12)[C@@H]1NC(=O)[C@@H]2C[C@H](F)CN2C(=O)CNC(=O)[C@H](Cc2ccc(C(=O)O)cc2)NC(=O)[C@H](Cc2ccncc2)NC(=O)[C@H](Cc2ccc(-c3ccc(C(=O)O)cc3)cc2)NC(=O)[C@H]2C[C@@H](Cc3ccncc3)CN2C(=O)CN(C)C(=O)[C@H](CCN)NC(=O)[C@H](CCC(N)=O)NC(=O)[C@H](Cc2cncnc2)NC(=O)C(C)(C)NC(=O)[C@H](Cc2c[nH]c3ccccc23)NC(=O)[C@H](CO)NC(=O)C(C)(C)NC1=O [Example 205] (cyclo([Bip(4'-COOH)][4Pal][Phe(4-COOH)]G[Pro(cis-4-F)][Trp(βS-Me,4-F)][Aib]SW[Aib][Ala(pyrimidin-5-yl)]Q[Dab][Sar][dPro(4R-(4-pyridylmethyl))])) | 0.028 nM |
| C[C@@H](c1c[nH]c2cccc(F)c12)[C@@H]1NC(=O)[C@@H]2C[C@H](F)CN2C(=O)CNC(=O)[C@H](Cc2ccc(C(=O)O)cc2)NC(=O)[C@H](Cc2ccncc2)NC(=O)[C@H](Cc2ccc(-c3ccc(C(=O)O)cc3)cc2)NC(=O)[C@H]2C[C@@H](Cc3ccncc3)CN2C(=O)CN(C)C(=O)[C@H](CCN)NC(=O)[C@H](CCC(N)=O)NC(=O)[C@H](Cc2cncnc2)NC(=O)[C@@](C)(CO)NC(=O)[C@H](Cc2c[nH]c3ccccc23)NC(=O)[C@H](CO)NC(=O)C(C)(C)NC1=O [Example 206] (cyclo([Bip(4'-COOH)][4Pal][Phe(4-COOH)]G[Pro(cis-4-F)][Trp(βS-Me,4-F)][Aib]SW[d(αMeS)][Ala(pyrimidin-5-yl)]Q[Dab][Sar][dPro(4R-(4-pyridylmethyl))])) | 0.022 nM |
